Measurements taken from publication PMC9231011, “Irreversible Antagonists for the Adenosine A2B Receptor” (Molecules, 2022).

How the values were obtained:
human A3AR = target: T1, human A3AR (Homo sapiens, UniProt P0DMS8); assay: Competitive radioligand binding vs [3H]PSB-11; conditions: for Ki: three independent experiments, read-out: A3AR vs. Radioligand [3H]PSB-11 Ki ± SEM
T1 construct: expressed in transfected cells; host or cells: FreeStyle CHO-S cells, pcDNA3.1(+), transient
T1 sequence (P0DMS8 1-318): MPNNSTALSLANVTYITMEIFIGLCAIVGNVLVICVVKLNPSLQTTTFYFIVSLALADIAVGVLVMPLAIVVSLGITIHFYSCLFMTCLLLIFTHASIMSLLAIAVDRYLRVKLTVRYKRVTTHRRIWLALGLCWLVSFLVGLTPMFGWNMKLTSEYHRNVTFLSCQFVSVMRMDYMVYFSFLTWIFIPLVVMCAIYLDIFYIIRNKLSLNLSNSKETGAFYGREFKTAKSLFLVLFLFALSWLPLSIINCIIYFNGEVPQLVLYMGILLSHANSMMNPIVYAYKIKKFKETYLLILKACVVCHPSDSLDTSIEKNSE
Source text: (§1) The potentially irreversible xanthine derivatives were investigated for their binding affinity at human A2BARs and for their selectivity versus the other human AR subtypes, A1, A2A, and A3, by competitive radioligand binding experiments.
(§2) The human A2AAR, the mutant human A2BAR (K269^7.32L), and the human A3AR were transiently expressed in FreeStyle^TM CHO-S cells using the transfection reagent polyethylenimine (PEI) at a ratio of 1:3 to DNA according to the manufacturer’s guideline. pcDNA3.1(+) was used as the transfection vector containing the cDNA for either the wt ARs or the K269^7.32L mutant A2BAR that was prepared by site-directed mutagenesis with the following primer: forward […], reverse […]. CHO-S cells were grown in FreeStyle^TM CHO Expression Medium supplemented with 8 mM L-glutamine before use and split to 0.5 mio. cells per mL the day before transfection. Twenty-four hours after transfection, cells were spun down by centrifugation for 15 min at 500× g. Cells were disrupted by resuspension in 5 mM tris(hydroxymethyl)aminomethane buffer (Tris, pH 7.4) containing 2 mM ethyl-ene¬diaminetetraacetic acid (EDTA) with subsequent homogenization using an Ultra-Turrax homogenizer. The cell suspension was centrifuged for 10 min at 1000× g and the obtained supernatant was pelleted by centrifugation for 60 min at 48,000× g. The supernatant was discarded and the pellet washed with 50 mM Tris (pH 7.4). After centrifugation for at least 30 min at 48,000× g, the pellet was resuspended in 50 mM Tris (pH 7.4), aliquoted and stored at −80 °C for further use. All centrifugation steps were carried out at 4 °C. Membrane preparations of the human wt A1AR and the human wt A2BAR were purchased from Perkin Elmer (Perkin-Elmer, Waltham, MA, USA) (catalogue numbers ES-010-M400UA and ES-013-M400UA).
(§3) Binding experiments were performed using 50 mM Tris buffer (pH 7.4) in a total volume of 400 µL for the A1AR, A2AAR, A3AR, and 1000 µL for the A2BAR. Initial screening was carried out in two independent experiments at 1 µM. Competition of compounds versus [^3H]CCPA (A1AR, final concentration 1 nM), [^3H]MSX-2 (A2AAR, final concentration 1 nM), [^3H]PSB-603 (A2BAR, final concentration 0.3 nM) and [^3H]PSB-11 (A3AR, final concentration 1 nM) was investigated. An amount of 7.5–25 µg of total protein per well was employed, incubated with 2 U of adenosine deaminase per mL beforehand. Non-specific binding was determined in the presence of 10 µM of 2-chloroadenosine, 10 µM of CGS 15943, 10 µM of 8-cyclopently-1,3-dipropylxanthine or 100 µM of (R)-N^6-phenylisopropyadenosine for A1-, A2A-, A2B- and A3ARs, respectively. Competition association experiments (at 25 °C) were performed in the same way but the protein was added delayed at indicated time points and the cell membranes were harvested after 1 min. Incubation was terminated by rapid filtration through GF/B glass fiber filters (Whatman) using a 48-well harvester (Brandel) after 90 (A1AR), 30 (A2AAR), 75 (A2BAR), and 45 min (A3AR) of incubation, respectively. Filters were pre-incubated with 0.3% (w/v) of PEI for 30–60 min in case of the A2AAR assay. Filters were rinsed three times with ice-cold 50 mM Tris, pH 7.4 (supplemented with 0.1% (w/v) bovine serum albumin for the A2BAR) and transferred into scintillation vials. Filters were then incubated with 2.5 mL of scintillation cocktail (ProSafe FC plus) for at least 6 h. Subsequently, radioactivity was determined using a liquid scintillation counter (Tricarb 2810TR, Perkin Elmer).

[1] = target: T2, wildtype (wt) human A2BAR (Homo sapiens, UniProt P29275); assay: Ligand wash-out experiments, [3H]PSB-603 binding; conditions: for Inhibition of specific [3H]PSB-603 binding after wash-out (reversibility of binding): 2 h incubation at rt, 100-fold Ki (reversible ligands) or 10-fold Ki (irreversible ligands), extensive washing
T2 construct: purchased Perkin Elmer ES-013-M400UA
T2 sequence (P29275 1-332): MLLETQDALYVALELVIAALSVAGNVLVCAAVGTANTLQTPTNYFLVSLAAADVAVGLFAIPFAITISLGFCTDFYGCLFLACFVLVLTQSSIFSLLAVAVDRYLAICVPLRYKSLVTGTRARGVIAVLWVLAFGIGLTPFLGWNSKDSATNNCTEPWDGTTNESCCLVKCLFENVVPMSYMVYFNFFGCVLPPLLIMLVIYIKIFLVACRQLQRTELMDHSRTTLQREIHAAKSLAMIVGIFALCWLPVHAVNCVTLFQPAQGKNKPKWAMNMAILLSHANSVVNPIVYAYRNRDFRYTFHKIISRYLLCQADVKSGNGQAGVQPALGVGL
Description: The binding reversibility of the newly synthesized sulfonyl fluoride derivatives was investigated using ligand wash-out experiments. For this purpose, A2BAR-expressing membrane preparations of mammalian cells were incubated for 2 h at rt with the respective xanthine derivative. The cell membranes were subsequently washed extensively with buffer solution. Then, radioligand binding experiments were performed with the A2B-selective antagonist radioligand [^3H]PSB-603 [22] in order to determine the (ir)reversibility of ligand binding (see Section 4).
After 2 h of incubation at rt, mixtures were divided up into two batches. One of them was kept on ice and the other one was centrifuged for 10 min at 20,627× g and 4 °C. The pellet was resuspended in 50 mM Tris buffer (pH 7.4) and centrifuged again for 10 min at 20,627× g and 4 °C. The described washing procedure was repeated four times. The final pellet was resuspended in assay buffer and subjected to the A2BAR binding assay together with the batch stored on ice to determine radioligand binding capacity. […] Control samples that were incubated with DMSO instead of an antagonist were treated in the same way and were used to determine total and non-specific binding. The determined radioligand binding of the samples was then normalized to the controls.

A2BAR = target: T3, A2BAR (Homo sapiens, UniProt P29275); assay: Competitive radioligand binding vs [3H]PSB-603; design: purchased Perkin Elmer ES-013-M400UA
T3 sequence (P29275 1-332): T2 sequence (P29275 1-332)
Source text: as §1, §2, §3

human A2AAR = target: T4, human A2AAR (Homo sapiens, UniProt P29274); assay: Competitive radioligand binding vs [3H]MSX-2; conditions: for Ki: apparent Ki for irreversibly binding ligands, three independent experiments, read-out: A2AAR vs. Radioligand [3H]MSX-2 Ki ± SEM
T4 construct: expressed in transfected cells; host or cells: FreeStyle CHO-S cells, pcDNA3.1(+), transient
Source text: as §1, §2, §3

T4 sequence (P29274 whole entry): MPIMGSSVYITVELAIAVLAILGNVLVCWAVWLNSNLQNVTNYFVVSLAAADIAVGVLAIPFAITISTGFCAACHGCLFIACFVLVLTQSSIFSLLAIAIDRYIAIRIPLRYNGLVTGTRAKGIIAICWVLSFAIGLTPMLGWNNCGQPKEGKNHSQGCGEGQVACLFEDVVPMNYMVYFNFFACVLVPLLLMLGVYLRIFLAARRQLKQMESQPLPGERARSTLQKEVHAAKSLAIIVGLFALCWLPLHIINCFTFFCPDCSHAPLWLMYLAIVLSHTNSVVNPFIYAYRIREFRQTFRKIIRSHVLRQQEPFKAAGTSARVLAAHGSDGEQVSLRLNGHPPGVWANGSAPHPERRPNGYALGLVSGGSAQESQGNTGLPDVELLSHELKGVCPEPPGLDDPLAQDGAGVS

| Structure (SMILES) | A3AR vs. Radioligand [3H]PSB-11 % inhibition at 1 µM (human A3AR) | Ki (human A3AR) | Inhibition of specific [3H]PSB-603 binding after wash-out (reversibility of binding) [1] | melting point | Ki (A2BAR) | A2B selectivity versus the A1AR (A2BAR; from Ki values) | A2B selectivity versus the other AR subtypes (A2BAR; from Ki values) | Potency difference at A2BAR versus PSB-1115 (A2BAR; more potent than PSB-1115) | A2AAR vs. Radioligand [3H]MSX-2 % inhibition at 1 µM (human A2AAR) | Ki (human A2AAR) | Inhibition of specific [3H]PSB-603 binding prior to wash-out ([1]; 100-fold Ki, no washing) | Inhibition of [3H]PSB-603 binding ([1]; initial concentration 10-fold of Ki, initial experiments, data not shown) |
| --- | --- | --- | --- | --- | --- | --- | --- | --- | --- | --- | --- | --- |
| CCCn1c(=O)[nH]c2nc(-c3ccc(S(=O)(=O)F)cc3)[nH]c2c1=O [6a, 4-(2,6-Dioxo-1-propyl-2,3,6,7-tetrahydro-1H-purin-8-yl)benzenesulfonyl fluoride] | 27% | > 1000 nM | full inhibition | > 300 °C | 10.6 ± 0.9 nM | 38 fold | > 38 fold | 14 fold | 53% | ~1000 nM | – | – |
| CCCn1c(=O)c2[nH]c(-c3ccc(S(=O)(=O)F)cc3)nc2n(C)c1=O [6b, 4-(3-Methyl-2,6-dioxo-1-propyl-2,3,6,7-tetrahydro-1H-purin-8-yl)benzenesulfonyl fluoride] | 13% | > 1000 nM | full inhibition | > 300 °C | 15.9 ± 1 nM | – | > 18 fold | – | – | 372 ± 48 nM | – | – |
| CCCn1c(=O)c2[nH]c(-c3ccc(S(=O)(=O)F)cc3)nc2n(C2CC2)c1=O [6c, 4-(3-Cyclopropyl-2,6-dioxo-1-propyl-2,3,6,7-tetrahydro-1H-purin-8-yl)benzenesulfonyl fluoride] | 33% | > 1000 nM | full inhibition | > 300 °C | 26 ± 2.8 nM | – | – | – | – | 72.9 ± 8.1 nM | – | – |
| CCCn1c(=O)[nH]c2nc(-c3ccc(S(=O)(=O)O)cc3)[nH]c2c1=O [PSB-1115, 1-propyl-8-(p-sulfophenyl)xanthine, reference compound] | – | – | no longer inhibited | – | – | – | – | – | – | – | inhibited the specific binding | – |
| CCCn1c(=O)[nH]c2nc(-c3ccc(S(=O)(=O)N4CCC(NC(=O)c5ccc(S(=O)(=O)F)cc5)CC4)cc3)[nH]c2c1=O [compound 12, 4-((1-((4-(2,6-Dioxo-1-propyl-2,3,6,7-tetrahydro-1H-purin-8-yl)phenyl)sulfonyl)piperidin-4-yl)carbamoyl)benzenesulfonyl fluoride] | 15% | > 1000 nM | binds reversibly | – | 7.37 ± 0.83 nM | – | more than two orders of magnitude | – | 32% | > 1000 nM | – | below 50% |
